Legend:
[1] = test system: HCT116 cells, MKN45 cells; test: Test C: Measurement of cell proliferation by 14C-thymidine pulse; format: cell-based; conditions: 14C-thymidine incorporation, 96 h of treatment; cell line not given
Description: (§1) Stop the reaction with 100 μl of stop solution. Read without delay at […], 0.1 second on Wallac Victor plate reader. • C) Test C: Measurement of cell proliferation by ^14c-thymidine pulse
The cells are seeded into Cytostar 96-well plates in 180 μl for 4 hours at 37° C. and 5% CO2: HCT116 cells at a rate of 2500 cells per well in DMEM medium+10% foetal calf serum+1% L-glutamine and MKN45 cells at a rate of 7500 cells per well in RPMI medium+10% foetal calf serum+1% L-glutamine. After these 4 hours of incubation, the products are added in 10 μl as a 20-fold concentrated solution according to the dilution method mentioned for the ELISA. The products are tested at 10 concentrations in duplicate from 10 000 nM to 0.3 nM with an increment of 3.
After treatment for 72 h, add 10 μl of ^14C-thymidine at 10 μCi/ml to obtain 0.1 μCi per well. The ^14C-thymidine incorporation is measured on a Micro-Beta machine (Perkin-Elmer) after 24 hours of pulse and 96 h of treatment.
All the steps of the assay are automated on BIOMEK 2000 or TECAN stations.

[2] = target: T1, MET (Homo sapiens, UniProt P08581); test: Test B: Inhibition of the autophosphorylation of MET; ELISA technique (pppY1230,1234,1235) in MKN45 cells; format: cell-based; set-up: Seed MKN45 cells into 96-well plates (Cell coat BD polylysine) at 20 000 cells/well; endogenous in cells; host or cells: MKN45 cells; conditions: 1 h treatment, PhosphoMET ELISA
Description: Leave to adhere for 24 hours in an incubator.
The cells are treated the day after seeding with the products at 6 concentrations in duplicate for 1 h. At least 3 control wells are treated with the same final amount of DMSO.
Product dilution: Stock at 10 mM in pure DMSO—range from 10 mM to 30 μM with an increment of 3 in pure DMSO—intermediate 1/50 dilutions in culture medium and then removal of 10 μl added directly to the cells (200 μl): final range of 10 000 to 30 nM.
At the end of the incubation, carefully remove the supernatant and rinse with 200 μl of PBS. Next, place 100 μl of lysis buffer directly in the wells on ice and incubate at 4° C. for 30 minutes. Lysis buffer: 10 mM Tris HCl, pH7.4, 100 mM NaCl, 1 mM EDTA, 1 mM EGTA, 1% Triton X-100, 10% glycerol, 0.1% SDS, 0.5% deoxycholate, 20 mM NaF, 2 mM Na3VO4, 1 mM PMSF and cocktail of antiproteases.
The 100 μl of lysates are transferred into a V-bottomed polypropylene plate and the ELISA is performed immediately, or the plate is frozen at −80° C. • b) PhosphoMET ELISA BioSource Kit KH00281
Into each well of the kit plate, add 70 μl of kit dilution buffer+30 μL of cell lysate or 30 μl of lysis buffer for the blanks. Incubate for 2 h with gentle agitation at ambient temperature.
Rinse the wells 4 times with 400 μl of kit washing buffer. Incubate with 100 μl of anti-phospho MET antibody for 1 hour at ambient temperature.
Rinse the wells 4 times with 400 μl of kit washing buffer. Incubate with 100 μl of anti-rabbit HRP antibody for 30 minutes at ambient temperature (except for the wells of chromogen alone).
Rinse the wells 4 times with 400 μl of kit washing buffer. Introduce 100 μL of chromogen and incubate for 30 minutes in the dark at ambient temperature.
as §1
Target sequence in this assay (P08581 25-1390): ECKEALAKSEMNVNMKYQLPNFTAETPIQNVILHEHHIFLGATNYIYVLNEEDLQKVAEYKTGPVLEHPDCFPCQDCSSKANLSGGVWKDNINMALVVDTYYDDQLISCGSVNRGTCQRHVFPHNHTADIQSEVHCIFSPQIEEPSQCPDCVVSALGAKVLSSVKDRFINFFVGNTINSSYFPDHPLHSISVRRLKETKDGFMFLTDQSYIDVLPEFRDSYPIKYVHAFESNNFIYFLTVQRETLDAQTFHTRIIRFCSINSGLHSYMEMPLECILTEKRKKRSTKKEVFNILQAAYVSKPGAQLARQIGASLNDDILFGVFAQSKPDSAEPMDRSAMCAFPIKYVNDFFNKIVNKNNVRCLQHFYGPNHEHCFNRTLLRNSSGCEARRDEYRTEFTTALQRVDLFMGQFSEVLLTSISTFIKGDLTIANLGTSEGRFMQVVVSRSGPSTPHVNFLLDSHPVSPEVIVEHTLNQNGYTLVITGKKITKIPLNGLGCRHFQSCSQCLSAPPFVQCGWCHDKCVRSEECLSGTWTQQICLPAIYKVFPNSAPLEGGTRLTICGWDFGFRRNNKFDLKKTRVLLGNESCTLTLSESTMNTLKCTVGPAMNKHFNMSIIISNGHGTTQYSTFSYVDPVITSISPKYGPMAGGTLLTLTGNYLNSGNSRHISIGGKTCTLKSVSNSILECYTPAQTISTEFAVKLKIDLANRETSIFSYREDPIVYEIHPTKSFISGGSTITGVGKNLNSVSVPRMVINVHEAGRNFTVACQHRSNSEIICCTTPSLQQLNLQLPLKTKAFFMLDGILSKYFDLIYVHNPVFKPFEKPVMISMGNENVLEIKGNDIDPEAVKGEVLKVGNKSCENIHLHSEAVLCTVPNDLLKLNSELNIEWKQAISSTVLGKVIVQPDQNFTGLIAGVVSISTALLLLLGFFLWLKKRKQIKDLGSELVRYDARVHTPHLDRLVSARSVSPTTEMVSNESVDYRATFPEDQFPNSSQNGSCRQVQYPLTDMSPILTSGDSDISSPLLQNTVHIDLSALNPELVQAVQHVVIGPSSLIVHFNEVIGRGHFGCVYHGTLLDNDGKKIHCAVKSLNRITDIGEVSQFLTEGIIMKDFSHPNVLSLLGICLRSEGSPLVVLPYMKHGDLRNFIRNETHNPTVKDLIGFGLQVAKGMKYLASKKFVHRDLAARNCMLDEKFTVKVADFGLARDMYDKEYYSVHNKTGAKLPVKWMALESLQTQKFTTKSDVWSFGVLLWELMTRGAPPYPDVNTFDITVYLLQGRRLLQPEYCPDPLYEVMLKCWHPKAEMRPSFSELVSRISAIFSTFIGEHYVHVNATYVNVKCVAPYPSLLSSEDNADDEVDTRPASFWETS

[3] = target: T1, MET; test: Test A: HTRF MET assay in 96-well format; format: biochemical; set-up: The His-Tev-MET (956-1390) recombinant DNA in pFastBac (Invitrogen) is transfected into insect cells; His tag (N, cleaved yes); TEV cleavage site (N); made in house; host or cells: SF21 insect cells (baculovirus, pFastBac); conditions: MET 5 nM, 10 μM ATP
Description: I) Expression and Purification of MET, Cytoplasmic Domain
The His-Tev-MET (956-1390) recombinant DNA in pFastBac (Invitrogen) is transfected into insect cells, and after several viral amplification steps, the final baculovirus stock is tested for the expression of the protein of interest.
After infection for 72 h at 27° C. with the recombinant virus, the SF21 cell cultures are harvested by centrifugation and the cell pellets are stored at −80° C.
The cell pellets are resuspended in lysis buffer (buffer A [50 mM HEPES, pH 7.5, 250 mM NaCl, 10% glycerol, 1 mM TECP]; +cocktail of protease inhibitors, Roche Diagnostics, without EDTA, ref 1873580), stirred at 4° C. until the mixture is homogeneous and then lyzed mechanically using a “Dounce” type apparatus.
After centrifugation, the lysis supernatant is incubated for 2 h at 4° C. with nickel chelate resin (His-Trap 6 Fast Flow™, GE HealthCare). After washing with 20 volumes of buffer A, the suspension is packed into a column, and the proteins are eluted with a gradient of buffer B ([…]+290 mM imidazole).
The fractions containing the protein of interest for the purpose of electrophoretic analysis (SDS PAGE) are combined, concentrated by ultrafiltration (10 kDa cut-off) and injected onto an exclusion chromatography column (Superdex™ 200, GE HealthCare) equilibrated in buffer A.
After enzymatic cleavage of the histidine tag, the protein is reinjected onto a new IMAC nickel chelate chromatography column (His-Trap 6 Fast Flow™, GE HealthCare) equilibrated in buffer A. The fractions eluted with a gradient of buffer B and containing the protein of interest after electrophoresis (SDS PAGE) are finally combined and conserved at −80° C.
For the production of autophosphorylated protein, the previous fractions are incubated for 1 h at ambient temperature after the addition of 2 mM ATP, 2 mM MgCl2, and 4 mM Na3VO4. After the reaction has been stopped with 5 mM of EDTA, the reaction mixture is injected onto a HiPrep desalifying column (GE HealthCare) preequilibrated in buffer A+4 mM Na3VO4, and the fractions containing the protein of interest (SDS PAGE analysis) are combined and stored at −80° C. The degree of phosphorylation is verified by mass spectrometry (LC-MS) and by peptide mapping.
• A) Test A: HTRF MET assay in 96-well format
MET at a final concentration of 5 nM is incubated in a final volume of 50 μl of enzymatic reaction in the presence of the test molecule (for a final concentration range of from 0.17 nM to 10 μM, 3% DMSO final concentration) in 10 mM MOPS buffer, pH 7.4, 1 mM DTT, 0.01% Tween 20. The reaction is initiated with the substrate solution to obtain final concentrations of 1 μg/ml poly-(GAT), 10 μM ATP and 5 mM MgCl2. After incubation for 10 min at ambient temperature, the reaction is stopped with a 30 μl mix so as to obtain a final solution of 50 mM Hepes pH 7.5, 500 mM potassium fluoride, 0.1% BSA and 133 mM EDTA in the presence of 80 ng of streptavidin 61SAXLB Cis-Bio Int. and 18 ng of anti-phosphotyrosine Mab PT66-Europium Cryptate per well. After incubation for 2 hours at ambient temperature, the reading is taken at 2 wavelengths, 620 nm and 665 nm, on a reader for the TRACE/HTRF technique and the % inhibition is calculated from the 665/620 ratios.
Target sequence in this assay (P08581 956-1390): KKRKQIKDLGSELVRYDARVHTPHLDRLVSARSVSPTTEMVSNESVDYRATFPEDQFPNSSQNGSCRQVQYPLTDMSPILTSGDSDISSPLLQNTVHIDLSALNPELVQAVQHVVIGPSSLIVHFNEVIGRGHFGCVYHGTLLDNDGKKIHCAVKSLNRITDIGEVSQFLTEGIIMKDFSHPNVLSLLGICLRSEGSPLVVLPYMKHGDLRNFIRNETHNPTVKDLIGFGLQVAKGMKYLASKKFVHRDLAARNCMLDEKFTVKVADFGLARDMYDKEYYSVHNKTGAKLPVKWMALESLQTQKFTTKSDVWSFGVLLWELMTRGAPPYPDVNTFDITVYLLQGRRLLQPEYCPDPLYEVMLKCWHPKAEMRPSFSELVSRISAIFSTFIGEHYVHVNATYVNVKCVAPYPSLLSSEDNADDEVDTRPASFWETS

Row | SMILES | IC50 [1] [nM] | IC50 [2] [nM] | IC50 [3] [nM]
1 | Fc1ccc(-c2ccc3nnc(Sc4ccc5nc(NCCN6CCOCC6)sc5c4)n3n2)cc1 [Example 30, 6-{[6-(4-Fluorophenyl)[1,2,4]triazolo[4,3-b]pyridazin-3-yl]sulphanyl}-N-[2-(morpholin-4-yl)ethyl]-1,3-benzothiazol-2-amine] | < 1000 | < 100 | < 100
2 | CC(=O)Nc1ccc2nnc(Sc3ccc4nc(NC(=O)NCCN5CCOCC5)sc4c3)n2n1 [Example 31, N-(3-{[2-({[2-(Morpholin-4-yl)ethyl]carbamoyl}amino)-1,3-benzothiazol-6-yl]sulphanyl}[1,2,4]triazolo[4,3-b]pyridazin-6-yl)acetamide] | < 1000 | 100 to 500 | < 100
3 | CC(C)(C)C(=O)Nc1ccc2nnc(Sc3ccc4nc(NC(=O)NCCN5CCOCC5)sc4c3)n2n1 [Example 32, 2,2-Dimethyl-N-(3-{[2-({[2-(morpholin-4-yl)ethyl]carbamoyl}amino)-1,3-benzothiazol-6-yl]sulphanyl}[1,2,4]triazolo[4,3-b]pyridazin-6-yl)propanamide] | < 1000 | < 100 | < 100
4 | O=C(Nc1nc2ccc(Sc3nnc4ccc(-c5ccc(F)cc5)nn34)cc2s1)Oc1ccccc1 [Example 33, Phenyl (6-{[6-(4-fluorophenyl)[1,2,4]triazolo[4,3-b]pyridazin-3-yl]sulphanyl}-1,3-benzothiazol-2-yl)carbamate] | < 1000 | < 100 | < 500
5 | O=C(NCCN1CCOCC1)Nc1nc2ccc(Sc3nnc4ccc(OCC5CCO5)nn34)cc2s1 (stereo not drawn) [Example 34, 1-[2-(Morpholin-4-yl)ethyl]-3-(6-{[6-(oxetan-2-ylmethoxy)[1,2,4]triazolo[4,3-b]pyridazin-3-yl]sulphanyl}-1,3-benzothiazol-2-yl)urea] | < 10000 | < 100 | < 100
6 | O=C(Nc1nc2ccc(Sc3nnc4ccc(-c5ccc(F)cc5)nn34)cc2s1)OCC1CCO1 (stereo not drawn) [Example 35, Oxetan-2-ylmethyl (6-{[6-(4-fluorophenyl)[1,2,4]triazolo[4,3-b]pyridazin-3-yl]sulphanyl}-1,3-benzothiazol-2-yl)carbamate] | < 1000 | < 100 | < 100
7 | COc1ccc2nnc(Sc3ccc4nc(NC(=O)C5CC5)sc4c3)n2n1 [Example 36, N-{6-[(6-Methoxy[1,2,4]triazolo[4,3-b]pyridazin-3-yl)sulphanyl]-1,3-benzothiazol-2-yl}cyclopropanecarboxamide] | < 1000 | < 100 | < 100
8 | CCOc1ccc2nnc(Sc3ccc4nc(NC(=O)NCCN5CCOCC5)sc4c3)n2n1 [Example 37, 1-{6-[(6-Ethoxy[1,2,4]triazolo[4,3-b]pyridazin-3-yl)sulphanyl]-1,3-benzothiazol-2-yl}-3-[2-(morpholin-4-yl)ethyl]urea] | < 1000 | < 100 | < 100
9 | CCOC1=Nn2c(nnc2Sc2ccc3nc(NC(=O)NCCN4CCOCC4)sc3c2)CC1 [Example 38, 1-{6-[(6-Ethoxy-7,8-dihydro[1,2,4]triazolo[4,3-b]pyridazin-3-yl)sulphanyl]-1,3-benzothiazol-2-yl}-3-[2-(morpholin-4-yl)ethyl]urea] | < 1000 | < 100 | < 100

Now from value to compound:

Row | IC50 [1] [nM] | IC50 [2] [nM] | IC50 [3] [nM] | SMILES
10 | < 1000 | 100 to 500 | < 100 | CC(=O)Nc1nc2ccc(Sc3nnc4ccc(N5CCN(C)CC5)nn34)cc2s1 [Example 25, N-(6-{[6-(4-Methylpiperazin-1-yl)[1,2,4]triazolo[4,3-b]pyridazin-3-yl]sulphanyl}-1,3-benzothiazol-2-yl)acetamide]
11 | < 1000 | < 100 | < 100 | COCCNc1nc2ccc(Sc3nnc4ccc(-c5ccc(F)cc5)nn34)cc2s1 [Example 26, 6-{[6-(4-Fluorophenyl)[1,2,4]triazolo[4,3-b]pyridazin-3-yl]sulphanyl}-N-(2-methoxyethyl)-1,3-benzothiazol-2-amine]
12 | < 1000 | < 100 | < 100 | COCCNc1ccc2nnc(Sc3ccc4nc(NC(C)=O)sc4c3)n2n1 [Example 27, N-[6-({6-[(2-Methoxyethyl)amino][1,2,4]triazolo[4,3-b]pyridazin-3-yl}sulphanyl)-1,3-benzothiazol-2-yl]acetamide]
13 | < 1000 | < 100 | < 100 | O=C(NCCN1CCOCC1)Nc1nc2ccc(Sc3nnc4ccc(N5CCOCC5)nn34)cc2s1 [Example 28, 1-[2-(Morpholin-4-yl)ethyl]-3-(6-{[6-(morpholin-4-yl)[1,2,4]triazolo[4,3-b]-pyridazin-3-yl]sulphanyl}-1,3-benzothiazol-2-yl)urea]
14 | < 1000 | 100 to 500 | < 100 | Nc1ccc2nnc(Sc3ccc4nc(NC(=O)NCCN5CCOCC5)sc4c3)n2n1 [Example 29, 1-{6-[(6-Amino[1,2,4]triazolo[4,3-b]pyridazin-3-yl)sulphanyl]-1,3-benzothiazol-2-yl}-3-[2-(morpholin-4-yl)ethyl]urea]
